Assay results from patent US20210077529A1, “T-CELL EXHAUSTION, METHODS & COMPOSITIONS RELATING THERETO” (MEMORIAL SLOAN KETTERING CANCER CENTER, priority 2018, published 2021).
“Also recorded” adds a separate entry of the source.

Columns and labels:
Format in all cases: cell-based, mouse
Tcf7 = Tcf7 expression in chronically stimulated T-cells (real-time quantitative PCR); conditions: chronically stimulated CD3+ T cells, 8 days, 10 mM N-acetylcysteine
Excerpt: FIG. 16A-B. N-acetylcysteine restores T-cell memory. Isolated CD3+ T cells were stimulated acutely or chronically as described herein. […] Tumor-infiltrating T-cells from patients with melanoma who received checkpoint inhibitors were extracted and analyzed by single-cell RNA-seq. […] The in vitro system that developed and described herein allowed for metabolic evaluations that led directly to the identification of oxidative stress as a hallmark of T-cell exhaustion. We therefore evaluated whether adding N-acetylcysteine (10 mM) to T-cell media every 48 hours during days 2-8 of chronic stimulation would be sufficient to reverse the effects of chronic stimulation on T-cell growth and effector function. […] FIGS. 12-16. Moreover, this strategy was also effective in reversing the exhaustion of chimeric antigen receptor (CAR) T-cells. For this assay, T-cells retrovirally infected to express a chimeric antigen receptor targeting CD19 were adoptively transferred into mice who had previously received A20 B-cell lymphoma cells. This protocol is known to generate “exhausted” CAR T-cells by Day 14 following CAR T-cell transfer. […] FIG. 16. To determine this, T-cells that had been acutely or chronically stimulated in the presence or absence of 10 mM N-acetylcysteine were assessed for Tcf7 expression via real-time quantitative PCR. […]

exhausted CAR-T cells [1] = assay: Proliferative capacity of exhausted CD19-specific CAR-T cells isolated from lymphoma-bearing mice; conditions: exhausted CD19 CAR-T cells isolated 14 days after transfer into A20 lymphoma mice; 10 mM in culture media
Excerpt: (§1) FIG. 15A-C N-acetylcysteine reverses CAR-T cell exhaustion. Exhausted CAR-T cells were generated by transferring CD19-specific CAR-T cells into mice bearing CD19-expressing A20 lymphoma cells. After 14 days, CAR-T cells were isolated from mouse spleens and interrogated for proliferative capacity, oxidative stress, and cytokine production. […] The in vitro system that developed and described herein allowed for metabolic evaluations that led directly to the identification of oxidative stress as a hallmark of T-cell exhaustion. We therefore evaluated whether adding N-acetylcysteine (10 mM) to T-cell media every 48 hours during days 2-8 of chronic stimulation would be sufficient to reverse the effects of chronic stimulation on T-cell growth and effector function. […] FIGS. 12-16. Moreover, this strategy was also effective in reversing the exhaustion of chimeric antigen receptor (CAR) T-cells. For this assay, T-cells retrovirally infected to express a chimeric antigen receptor targeting CD19 were adoptively transferred into mice who had previously received A20 B-cell lymphoma cells. This protocol is known to generate “exhausted” CAR T-cells by Day 14 following CAR T-cell transfer. […] FIG. 16. To determine this, T-cells that had been acutely or chronically stimulated in the presence or absence of 10 mM N-acetylcysteine were assessed for Tcf7 expression via real-time quantitative PCR. […]

[2] = system: tumor cells expressing specific antigen; assay: Killing of tumor cells expressing specific antigen by chronically stimulated T-cells (co-culture)
Protocol: (§2) FIG. 14A-D. N-acetylcysteine reverses endogenous T-cell exhaustion. Isolated CD3+ T cells were stimulated acutely or chronically as described elsewhere herein in the without anti-PD-L1 (FIG. 14A) or in presence or absence of anti-PD-L1 (FIG. 14B) and/or N-acetylcysteine (10 mM) (FIG. 14C). Following 8 days of culture, cells were re-stimulated for cytokine production (above) or co-cultured with tumor cells expressing specific antigen.
Ultimately, the hallmark of T-cell exhaustion in the context of both chronic viral infections and cancer requires a loss of effector function, defined as the absence of target cell killing. Therefore, it was imperative to establish that exhausted cells generated using this in vitro system were not able to kill target cells. […] 24 hours later luminescence was measured using a luminometer. Killing efficacy was determined by luminescence relative to B16 cells co-cultured with T-cells in the absence of specific peptide.
The in vitro system that developed and described herein allowed for metabolic evaluations that led directly to the identification of oxidative stress as a hallmark of T-cell exhaustion. We therefore evaluated whether adding N-acetylcysteine (10 mM) to T-cell media every 48 hours during days 2-8 of chronic stimulation would be sufficient to reverse the effects of chronic stimulation on T-cell growth and effector function. […]

exhausted CAR-T cells [3] = assay: Cytokine production of exhausted CAR-T cells; conditions: exhausted CD19 CAR-T cells isolated 14 days after transfer; 10 mM
Excerpt: as §1

exhausted CAR-T cells [4] = assay: Oxidative stress (reactive oxygen species) in exhausted CAR-T cells; conditions: exhausted CD19 CAR-T cells isolated 14 days after transfer, re-stimulated with anti-CD3 and anti-CD28; 10 mM
Excerpt: as §1

[5] = system: chronically stimulated T-cells; assay: Proliferation of chronically stimulated T-cells (polyclonal in vitro exhaustion model, Coulter counter counts); conditions: CD3+ T cells, chronic anti-CD3/anti-CD28 stimulation days 2-8, 10 mM N-acetylcysteine
Protocol: FIG. 13A-B. N-acetylcysteine restores proliferation of chronically stimulated T-cells. FIG. 13A—schematic representation of model/method. Isolated CD3+ T cells were stimulated for 2 days with plate-bound anti-CD3 and anti-CD28. Following 2-day stimulation, cells were either incubated in IL-2 alone or serially re-plated on plates coated with anti-CD3 and anti-CD28 every 2 days for an additional 6 days in the presence or absence of 10 mM N-acetylcysteine. Cells were counted every 2 days using a Coulter counter. […] FIG. 3A and FIG. 3F provide schematic representations of a polyclonal T cell exhaustion model in which a generalized TCR and CD28 stimulus is used. Utilizing a generalized TCR and CD28 stimulus has multiple advantages. […] We therefore evaluated whether adding N-acetylcysteine (10 mM) to T-cell media every 48 hours during days 2-8 of chronic stimulation would be sufficient to reverse the effects of chronic stimulation on T-cell growth and effector function. […] To determine this, T-cells that had been acutely or chronically stimulated in the presence or absence of 10 mM N-acetylcysteine were assessed for Tcf7 expression via real-time quantitative PCR. […]

[6] = system: chronically stimulated T-cells; assay: Cytokine production of chronically stimulated T-cells after re-stimulation (flow cytometry); conditions: CD3+ T cells, 8 days of culture, N-acetylcysteine 10 mM
Protocol: as §2
The expression of the inhibitory receptors PD-1, LAG-3, and PD-L1 and the effector cytokines IFNγ, TNFα and IL2 was analyzed by flow cytometry. Briefly, cells that were stimulated acutely or chronically for 8 days as described herein were re-stimulated after overnight rest using 50 ng/mL phorbol myristate acetate (PMA) and 500 ng/mL ionomycin. […]
The in vitro system that developed and described herein allowed for metabolic evaluations that led directly to the identification of oxidative stress as a hallmark of T-cell exhaustion. We therefore evaluated whether adding N-acetylcysteine (10 mM) to T-cell media every 48 hours during days 2-8 of chronic stimulation would be sufficient to reverse the effects of chronic stimulation on T-cell growth and effector function. […] To determine this, T-cells that had been acutely or chronically stimulated in the presence or absence of 10 mM N-acetylcysteine were assessed for Tcf7 expression via real-time quantitative PCR. […]

[7] = system: chronically stimulated T-cells; assay: Intracellular ophthalmate levels in chronically stimulated T-cells (LC-MS); conditions: chronically stimulated CD3+ T cells, 8 days, 10 mM N-acetylcysteine
Protocol: FIG. 18A-C. Ophthalmate is a biomarker for oxidative stress in exhausted T-cells and is reversed by N-acetylcysteine. Isolated CD3+ T cells were stimulated acutely or chronically as described herein in the presence or absence of N-acetylcysteine (10 mM). After 8 days, cells were analyzed for intracellular ophthalmate levels by LC-MS. […] Ophthalmate levels were higher in chronically stimulated T-cells (FIG. 18B) and this was reversed by administration of N-acetylcysteine (FIG. 18C).

CC(=O)N[C@@H](CS)C(=O)O [N-acetylcysteine]
Tcf7 expression (memory marker) (Tcf7): restored Tcf7 expression; also recorded: largely restored
CAR-T cell proliferation (exhausted CAR-T cells [1]): enhanced CAR-T cell proliferation; also recorded: allowed CAR T-cells to proliferate
anti-PD-1 responsiveness of chronically stimulated T-cells ([2]; 10 mM N-acetylcysteine every 48 hours during days 2-8 of chronic stimulation): fully restored
tumor / target cell killing by chronically stimulated T-cells ([2]; 8 days of culture, co-cultured with tumor cells expressing specific antigen, N-acetylcysteine 10 mM): effectively reversed; also recorded: fully restored
CAR-T cell cytokine production (exhausted CAR-T cells [3]): enhanced; also recorded: allowed CAR T-cells to proliferate and produce cytokine
oxidative stress (reactive oxygen species) in CAR-T cells (exhausted CAR-T cells [4]): reducing oxidative stress; also recorded: could be reversed
T-cell proliferation under chronic stimulation [5]: fully reverses the impairment in proliferation; also recorded: fully reverse
cytokine production of chronically stimulated T-cells [6]: effectively reversed; also recorded: fully reverse
intracellular ophthalmate levels [7]: reversed
